Earlier results in US20170020837A1, “FUMARATE COMPOUNDS, PHARMACEUTICAL COMPOSITIONS THEREOF, AND METHODS OF USE” (priority 2015, published 2017).

## COC(=O)/C=C/C(=O)OC [DMF, dimethylfumarate]
  aqueous solubility: poor
